{"source": "patent EP0396251A2", "about": "“Use of fatty acids for the treatment of diseases associated with cytokines” (NATIONAL UNIVERSITY OF SINGAPORE, priority 1989, dated 1990)", "key": {"interferon activity": {"tested_on": "interferon activity", "conditions": "Sarkar and Gupta; cited from earlier work"}, "[1]": {"tested_on": "total protein and RNA synthesis in the cells", "conditions": "at concentrations exceeding 1000µM; Sarkar and Gupta; cited from earlier work"}, "[2]": {"tested_on": "induction of antiviral state by human α interferon in human fibroblasts", "format": "cell-based"}, "[3]": {"tested_on": "induction of antiviral state by mouse interferon in mouse L cells", "format": "cell-based", "conditions": "50 µM"}, "[4]": {"tested_on": "induction of antiviral state by mouse interferon in mouse A9 cells", "format": "cell-based", "conditions": "50 µM"}, "[5]": {"tested_on": "antiviral state induced by human α interferon", "assay": "cells", "format": "cell-based", "conditions": "for inhibited the action of interferon: summary of Table 3, concentrations and serum as in Table 3"}, "[6]": {"tested_on": "antiviral state induced by human β interferon", "assay": "cells", "format": "cell-based", "conditions": "Fibroblast, 6 h, read-out: % inhibition of antiviral state induced by: human β interferon"}, "[7]": {"tested_on": "antiviral state induced by human γ interferon", "assay": "cells", "format": "cell-based", "conditions": "Fibroblast, 6 h, read-out: % inhibition of antiviral state induced by: human γ interferon"}, "interferon receptors": {"biological_target": "T1, interferon receptors (Homo sapiens, UniProt P17181+P48551)", "T1 construct": "endogenous in cells; host or cells: human fibroblasts", "T1 sequence (P17181 28-557)": "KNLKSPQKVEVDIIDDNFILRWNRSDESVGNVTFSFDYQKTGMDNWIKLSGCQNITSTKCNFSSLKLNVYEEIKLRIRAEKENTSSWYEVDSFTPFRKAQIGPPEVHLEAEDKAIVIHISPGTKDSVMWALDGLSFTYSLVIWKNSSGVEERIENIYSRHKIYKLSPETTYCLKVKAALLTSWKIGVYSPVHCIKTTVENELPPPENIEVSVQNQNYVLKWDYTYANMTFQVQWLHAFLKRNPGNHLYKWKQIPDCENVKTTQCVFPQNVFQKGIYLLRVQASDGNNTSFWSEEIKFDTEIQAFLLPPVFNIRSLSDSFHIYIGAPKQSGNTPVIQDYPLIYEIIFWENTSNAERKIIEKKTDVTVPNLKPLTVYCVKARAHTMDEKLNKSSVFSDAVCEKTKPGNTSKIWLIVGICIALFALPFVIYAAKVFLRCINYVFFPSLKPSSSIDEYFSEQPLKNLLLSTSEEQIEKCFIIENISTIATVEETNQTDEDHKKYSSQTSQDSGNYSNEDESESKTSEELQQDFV", "T1 sequence (P48551 27-515)": "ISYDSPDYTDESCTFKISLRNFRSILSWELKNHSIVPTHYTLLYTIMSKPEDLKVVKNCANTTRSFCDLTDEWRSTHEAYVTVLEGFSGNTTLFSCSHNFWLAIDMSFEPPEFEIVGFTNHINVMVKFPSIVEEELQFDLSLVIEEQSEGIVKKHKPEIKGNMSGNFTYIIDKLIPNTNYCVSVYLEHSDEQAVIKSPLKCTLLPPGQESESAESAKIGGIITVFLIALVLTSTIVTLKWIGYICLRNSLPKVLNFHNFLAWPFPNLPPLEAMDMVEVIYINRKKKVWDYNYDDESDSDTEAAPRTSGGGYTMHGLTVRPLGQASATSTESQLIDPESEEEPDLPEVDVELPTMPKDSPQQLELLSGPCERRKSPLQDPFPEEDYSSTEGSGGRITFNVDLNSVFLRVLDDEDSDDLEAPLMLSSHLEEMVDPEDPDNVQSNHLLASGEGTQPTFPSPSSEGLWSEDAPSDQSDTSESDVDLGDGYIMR", "assay": "Binding of 125I-labelled human alpha interferon to human fibroblasts (Scatchard plot), Example 3", "conditions": "for down regulating the interferon receptors: Figures 4 and 5", "procedure": "The binding of interferons to human cells was analysed with human alpha interferon labelled with radioactive iodine. The ¹²⁵I-labelled human alpha interferon was assayed for biological activity as well as analysed by sodium dodecyl sulphate (SDS)-polyacrylamide gel electrophoresis before use to ensure that the labelled ligand was not degraded and biologically active. The labelled ligand was then used in binding studies with human fibroblasts as previously described (Thompson et al., Branca and Baglioni; and Epstein et al.). The results of this study are expressed as a Scatchard plot of the binding data in Figures 3 to 6. The cells were washed twice with growth medium to remove most of the fatty acid before they were used to measure the binding of ¹²⁵I-human alpha interferon to their receptors. B and F are concentration of bound and free ¹²⁵I-human alpha interferon respectively."}, "[8]": {"tested_on": "total cellular protein synthesis", "assay": "Total cellular protein synthesis", "format": "cell-based"}, "[9]": {"tested_on": "uptake of ³[H]-uridine by the cells", "assay": "Uptake of 3[H]-uridine by the cells", "format": "cell-based"}, "[10]": {"tested_on": "human alpha interferon-induced antiviral state", "assay": "Kinetics of the inhibition of the interferon-induced antiviral state in human fibroblasts, Example 2", "format": "cell-based", "procedure": "Human fibroblasts grown in 96 well Micro-test II plates were incubated with growth medium containing 1% fetal calf serum and 50µM arachidonic acid for up to 6 hours. The cells were then assayed for the inhibition of the human alpha interferon-induced antiviral state.\nAlso, human fibroblasts in 96 well Micro-test II plates were incubated with growth medium containing 1% fetal calf serum and 50µM arachidonic acid for 6 hours."}, "[11]": {"conditions": "Homo sapiens, Fibroblast, 6 h, read-out: % inhibition of antiviral state induced by: human α interferon, 50µM compound, 1% fetal calf serum, 6 hours"}, "[12]": {"conditions": "Homo sapiens, Fibroblast, read-out: % inhibition of the antiviral state induced by human α interferon, Table 4: 50 µM compound, 1% fetal calf serum"}, "[13]": {"conditions": "Homo sapiens, Fibroblast, read-out: % inhibition of the antiviral state induced by human α interferon, Table 4: 50 µM compound, 10% fetal calf serum"}, "[14]": {"conditions": "Homo sapiens, Fibroblast, 6 h, read-out: % inhibition of antiviral state induced by: human α interferon, 50µM compound, 10% fetal calf serum, 6 hours"}}, "note": "Entries after “also recorded” stand apart in the source; their conditions may differ. Like-named read-outs stand apart in the source and are kept apart here."}
{"smiles": "CC(C)Cc1ccc(C(C)C(=O)O)cc1", "note": "(stereo not drawn) [ibuprofen]", "values": [{"measurement": "concentration at which interferon activity could be suppressed", "setting": "interferon activity", "result": "exceeding 1000 µM"}, {"measurement": "effect on total protein and RNA synthesis in the cells", "setting": "[1]", "result": "began to inhibit total protein and RNA synthesis"}]}
{"smiles": "COc1ccc2c(c1)c(CC(=O)O)c(C)n2C(=O)c1ccc(Cl)cc1", "note": "[Indomethacin]", "values": [{"measurement": "% inhibition in human fibroblasts", "setting": "[2]; 50 µM", "result": "not measurable"}, {"measurement": "% inhibition in human fibroblasts", "setting": "[2]; 300 µM", "result": "could not measure any inhibitory effect; also recorded: not measurable"}, {"measurement": "% inhibition in mouse L cells", "setting": "[3]", "result": "not measurable"}, {"measurement": "% inhibition in mouse A9 cells", "setting": "[4]", "result": "not measurable"}, {"measurement": "concentration at which interferon activity could be suppressed", "setting": "interferon activity", "result": "exceeding 1000 µM"}]}
{"smiles": "CCCCCC#CCC#CCC#CCC#CCCCC(=O)O", "values": [{"measurement": "inhibition at 50 µM", "setting": "[5]; [11]", "result": "≥ 90", "unit": "%"}, {"measurement": "inhibition at 50 µM", "setting": "[5]; [12]", "result": "≥ 90", "unit": "%"}, {"measurement": "inhibition at 50 µM", "setting": "[5]; [13]", "result": 0, "unit": "%"}, {"measurement": "inhibition at 200 µM", "setting": "[5]; Homo sapiens, Fibroblast, read-out: % inhibition of the antiviral state induced by human α interferon, Table 4: 200 µM compound, 10% fetal calf serum", "result": "≥ 90", "unit": "%"}, {"measurement": "inhibition at 200 µM", "setting": "[5]; Homo sapiens, Fibroblast, read-out: inhibit the interferon-induced antiviral state, 200µM, 10% fetal calf serum", "result": "≥ 90", "unit": "%"}, {"measurement": "inhibited the action of interferon", "setting": "[5]", "result": "≥ 90", "unit": "%"}, {"measurement": "inhibition at 50 µM", "setting": "[6]", "result": "≥ 90", "unit": "%"}, {"measurement": "inhibition at 50 µM", "setting": "[7]", "result": "≥ 80", "unit": "%"}, {"measurement": "down regulating the interferon receptors", "setting": "interferon receptors", "result": "30-60%"}, {"measurement": "inhibition of total cellular protein synthesis", "setting": "[8]", "result": "did not inhibit"}, {"measurement": "inhibition of the uptake of ³[H]-uridine by the cells", "setting": "[9]", "result": "partially inhibited"}]}
{"smiles": "CCCCCCCCC#CCC#CCC#CCCCC(=O)O", "note": "[5,8,11,-eicosatriynoic acid, 5,8,11-eicosatriynoic acid]", "values": [{"measurement": "inhibition at 50 µM", "setting": "[5]; [11]", "result": "≥ 90", "unit": "%"}, {"measurement": "inhibited the action of interferon", "setting": "[5]", "result": "≥ 90", "unit": "%"}]}
{"smiles": "CC(=O)N1CCN(c2ccc(OC[C@H]3CO[C@](Cn4ccnc4)(c4ccc(Cl)cc4Cl)O3)cc2)CC1", "note": "(relative stereo) [Ketoconazole, cis-1-acetyl-4-{4-[2-(2,4-dichlorophenyl)-2-imidazol-1-ylmethyl-1,3-dioxolan-4-ylmethoxy]phenyl}-piperazine, reference compound]", "values": [{"measurement": "inhibition at 100 µM", "setting": "[5]; Homo sapiens, Fibroblast, 6 h, read-out: % inhibition of antiviral state induced by: human α interferon, 100µM compound, 10% fetal calf serum, 6 hours", "result": "≥ 90", "unit": "%"}, {"measurement": "inhibited the action of interferon", "setting": "[5]", "result": "≥ 90", "unit": "%"}, {"measurement": "inhibition at 100 µM", "setting": "[6]", "result": "≥ 90", "unit": "%"}, {"measurement": "inhibition of total cellular protein synthesis", "setting": "[8]", "result": "did not inhibit"}]}
{"smiles": "CCCCCC=CCC=CCC=CCC=CCCCC(=O)O", "note": "[arachidonic acid, 5,8,11,14-eicosatetraenoic acid]", "values": [{"measurement": "inhibition at 50 µM", "setting": "[5]; [11]", "result": "≥ 90", "unit": "%"}, {"measurement": "inhibition at 50 µM", "setting": "[5]; [12]", "result": "≥ 90", "unit": "%"}, {"measurement": "inhibition at 50 µM", "setting": "[5]; [13]", "result": 0, "unit": "%"}, {"measurement": "inhibition at 300 µM", "setting": "[5]; Homo sapiens, Fibroblast, read-out: % inhibition of the antiviral state induced by human α interferon, Table 4: 300 µM compound, 10% fetal calf serum", "result": "≥ 90", "unit": "%"}, {"measurement": "inhibited the action of interferon", "setting": "[5]", "result": "≥ 90", "unit": "%"}, {"measurement": "inhibition at 50 µM", "setting": "[6]", "result": "≥ 90", "unit": "%"}, {"measurement": "inhibition at 50 µM", "setting": "[7]", "result": "≥ 80", "unit": "%"}, {"measurement": "down regulating the interferon receptors", "setting": "interferon receptors", "result": "30-60%"}, {"measurement": "inhibition of total cellular protein synthesis", "setting": "[8]", "result": "did not inhibit"}, {"measurement": "inhibition of the uptake of ³[H]-uridine by the cells", "setting": "[9]", "result": "partially inhibited"}, {"measurement": "reversibility of the inhibition after removal of compound", "setting": "[10]; 50µM for 6 hours, washed, reincubated 0.5, 1, 2 or 24 hours, 1% fetal calf serum (Figure 2)", "result": "reversible with time"}, {"measurement": "onset of inhibition of the interferon-induced antiviral state", "setting": "[10]; 50µM, 1% fetal calf serum, incubation up to 6 hours (Figure 1)", "result": "within minutes"}]}
{"smiles": "CC(Cc1ccc(O)c(O)c1)C(C)Cc1ccc(O)c(O)c1", "note": "(stereo not drawn) [Nordihydroguaiaretic acid, 4,4′-(2,3-dimethyltetramethylene)bis(benzene-1,2-diol)]", "values": [{"measurement": "inhibition at 50 µM", "setting": "[5]; [14]", "result": "≥ 90", "unit": "%"}, {"measurement": "inhibited the action of interferon", "setting": "[5]", "result": "≥ 90", "unit": "%"}, {"measurement": "inhibition at 50 µM", "setting": "[6]", "result": "≥ 90", "unit": "%"}, {"measurement": "down regulation of the interferon receptors", "setting": "interferon receptors; 10% fetal calf serum (Figure 6)", "result": "does not seem to significantly down regulate"}]}
{"smiles": "CCCCC1C(=O)N(c2ccccc2)N(c2ccc(O)cc2)C1=O", "note": "(stereo not drawn) [Oxyphenylbutazone]", "values": [{"measurement": "% inhibition in human fibroblasts", "setting": "[2]; 50 µM", "result": "could not measure any inhibitory effect; also recorded: not measurable"}, {"measurement": "% inhibition in mouse L cells", "setting": "[3]", "result": "could not measure any inhibitory effect; also recorded: not measurable"}]}
{"smiles": "O=c1c(O)c(-c2ccc(O)c(O)c2)oc2cc(O)cc(O)c12", "note": "[Quercetin]", "values": [{"measurement": "inhibition at 50 µM", "setting": "[5]; [14]", "result": 90, "unit": "%"}, {"measurement": "inhibited the action of interferon", "setting": "[5]", "result": "≥ 90", "unit": "%"}]}
{"smiles": "CCCCC/C=C\\C/C=C\\C/C=C\\C/C=C\\CCCC(=O)O", "note": "[sodium arachidonate]", "values": [{"measurement": "inhibition at 300 µM", "setting": "[5]; Homo sapiens, Fibroblast, read-out: inhibit the interferon-induced antiviral state, 300µM, 10% fetal calf serum", "result": "≥ 90", "unit": "%"}]}
